Results: PMC8752738, “A propolis-derived small molecule ameliorates metabolic syndrome in obese mice by targeting the CREB/CRTC2 transcriptional complex” (Nature Communications, 2022)
Several values for one entry are separate records, joined by “and”; a condition that tells them apart may be missing. Equal entries are not always repeated.

What was measured:
HIS-CREB protein = molecular target: T1, HIS-CREB protein (Homo sapiens, UniProt P16220); assay: Surface plasmon resonance, immobilized HIS-CREB; assay type: binding; details: dose-dependent
T1 construct: made in house
T1 sequence (P16220 whole entry): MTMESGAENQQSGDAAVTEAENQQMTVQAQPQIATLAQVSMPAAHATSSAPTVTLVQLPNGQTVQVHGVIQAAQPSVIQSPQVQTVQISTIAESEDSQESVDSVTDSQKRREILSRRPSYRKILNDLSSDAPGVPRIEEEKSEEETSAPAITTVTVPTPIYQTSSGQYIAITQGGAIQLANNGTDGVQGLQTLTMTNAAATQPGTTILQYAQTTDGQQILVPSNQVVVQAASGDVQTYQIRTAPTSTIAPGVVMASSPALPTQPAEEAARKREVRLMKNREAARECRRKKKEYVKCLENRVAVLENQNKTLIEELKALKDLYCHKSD
Description: BIACORE 100 (GE Healthcare) was employed to perform surface plasmon resonance. Briefly, purified HIS-CREB proteins were captured in the test channel of an NTA-chip (GE, Healthcare) in HEPES buffer (10 mM HEPES, 150 mM NaCl, 3 mM EDTA, pH 7.5). APC solutions with different concentrations were flowed through immobilized HIS-CREB proteins for indicated times, which caused equilibrium response values (RU) to change appropriately. The detected RU values were plotted by time using GraphPad Prism software.

HIS-CRTC2-S171A proteins = molecular target: T2, HIS-CRTC2-S171A proteins (Homo sapiens, UniProt Q53ET0, S171A); assay: Surface plasmon resonance, immobilized HIS-CRTC2-S171A; assay type: binding
T2 construct: made in house; host or cells: E. coli
T2 sequence (Q53ET0 whole entry S171A): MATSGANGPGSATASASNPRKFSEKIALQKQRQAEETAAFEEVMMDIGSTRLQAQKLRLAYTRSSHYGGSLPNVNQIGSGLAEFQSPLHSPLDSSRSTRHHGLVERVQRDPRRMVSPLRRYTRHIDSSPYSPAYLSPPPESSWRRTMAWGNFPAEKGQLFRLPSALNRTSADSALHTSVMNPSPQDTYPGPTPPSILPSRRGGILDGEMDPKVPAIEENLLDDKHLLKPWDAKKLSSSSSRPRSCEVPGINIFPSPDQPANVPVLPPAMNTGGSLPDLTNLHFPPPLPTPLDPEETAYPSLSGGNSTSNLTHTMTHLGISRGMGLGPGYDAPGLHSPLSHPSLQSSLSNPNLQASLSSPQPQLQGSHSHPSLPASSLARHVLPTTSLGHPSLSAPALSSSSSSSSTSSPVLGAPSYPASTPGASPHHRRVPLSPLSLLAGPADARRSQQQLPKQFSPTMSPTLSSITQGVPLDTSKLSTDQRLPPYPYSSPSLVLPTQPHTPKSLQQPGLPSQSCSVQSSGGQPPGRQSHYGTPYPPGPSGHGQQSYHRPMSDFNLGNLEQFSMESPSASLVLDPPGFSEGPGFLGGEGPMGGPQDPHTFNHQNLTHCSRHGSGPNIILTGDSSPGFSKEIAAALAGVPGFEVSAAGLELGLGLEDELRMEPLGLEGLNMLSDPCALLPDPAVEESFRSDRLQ

[1] = Blood chemistry (plasma hormones by ELISA); assay type: in vivo, mouse
Description: The plasma hormone levels of insulin and ghrelin were measured by ELISA kits from Millipore, glucagon and leptin were determined by ELISA kits from R&D.

HEK293T cells = assay: MTT assay, HEK293T cells; assay type: cell-based, human; details: Supp. Fig.10 b; individual replicates; Ctrl about 100
Description: 1 Supplementary Figure 10. A57 is novel inhibitor of the CREB/CRTC2 protein complex.
2 a) The inhibitory-activity of A57 as determined by two-hybrid reporter assay. HEK293T cells were
3 co-transfected with CREB/CRTC2 two-hybrid reporter system plasmids, following incubation with
4 indicated small molecules (10 µM) overnight before luciferase reporter assays (n=4 per treatment).
5 One of three independent experiments is shown here. Data are represented as mean ± SEM. *,
6 p < 0.05; **, p < 0.01; p values were determined by one-way ANOVA followed Dunnett’s multiple
8 b) Combinatorial analysis of the cell toxicity and inhibitory activity of A57. The CREB/CRTC2-two
9 hybrid reporter activity (as a normalized percentage) is the X-axis, and the cell activity tested by MTT
10 assay (as a normalized percentage) is the Y-axis. n=3.
11 c) Immunoblot of P-CREB and CRTC2 de-phosphorylation in primary hepatocytes incubated with
12 A57 and APC (10 µM) 1-h prior to glucagon (100 nM) stimulation for 30 min. One result from three
13 experiments is shown here (top), and relative P-CREB normalized by CREB is presented as a bar
14 graph (bottom, n=3). […]
15 values were determined by two-way ANOVA followed Bonferroni’s multiple comparisons test. […]
18 as mean ± SEM. ns, p > 0.05; *, p < 0.05; **, p < 0.01; p values were determined by two-way ANOVA […]

mouse Per2 promoter = assay: Per2-Luc reporter (CREB/CRTC2-mediated transcription of PER2); assay type: cell-based; details: preliminary research
Description: SREBP1 (m-SREBP1) and fat acid synthase (FASN) in glucagon- insulin treated cells, […]
mTORC1 activity at the same time. mTORC1 h as been reported to enh ance SREBP1c mediated lipogenesis m ainly by increasing the mat uration of SREBP1c prot eins (2015, The CREB coactivator CRTC2 controls hepatic lipid metabolism by regulating S REBP1, Nature, […]
Aug 13;524(7564):243- 6.). […]
hyperactivation caused by liver specific TSC1 deletion is insufficient to induce SREBP1c activation and de novo lipogenesis in the liver of high fat diet fed mice (Akt stimulates hepatic SREBP1c and lipogenesis through parallel mTORC1- dependent and independent pathways. Cell Metabolism . 2011. 14.1: 21- 32). Considered the requirement of TSC1 for PER2 to inhibit mTORC1 activity, the reduction of PER2 by APC may not be sufficient to induce SREBP1c activati on. Moreover, ou r dat a su ggest that APC redu ces the trans cription of SREBP1c in vivo (Figures 5b and 5g) , which would result in the decrease of whole SREBP1c protein levels and overcom e the effect on lipogenesis caused by APC activation of mTORC1. […]
Data are repres ented as mean ± SEM (n=4). *, p < 0.05; **, p< 0.01. pval ues wer e determined by one-way ANOVA followed Dunnett’s multiple comparisons test (Left).
The over-expr essed proteins FLAG- CREB and HA-CRTC2-171A were detected in the lysates of the luciferase reporter assay by immunoblotting (Right). […]

[2] = DIO mice, APC 10mg/kg, group mean, n=6
[3] = DIO mice, APC 10mg/kg, individual mouse
[4] = DIO mice, APC 20mg/kg, individual mouse

CC(C)=CCc1cc(C=CC(=O)O)cc(CC=C(C)C)c1O [APC, 3,5-diprenyl-4-hydroxycinnamic acid]
binding to immobilized HIS-CREB (SPR) (HIS-CREB protein): directly bound | affinity to CRTC2 (SPR) (HIS-CRTC2-S171A proteins): no affinity | plasma insulin and glucagon levels ([1]; DIO and db/db mice): without a change | leptin levels ([1]; DIO mice): not significant | plasma glucagon in DIO, mean [1, 2]: 109 ng/dL | plasma leptin in DIO, mean [1, 2]: 54.89 ng/mL | plasma glucagon in DIO [1, 3]: 116.57 ng/dL and 100.35 ng/dL and 100.46 ng/dL and 94.57 ng/dL and 118.78 ng/dL and 123.34 ng/dL | plasma leptin in DIO [1, 3]: 54.49 ng/mL and 52.07 ng/mL and 53.5 ng/mL and 46.64 ng/mL and 59.49 ng/mL and 63.13 ng/mL | plasma glucagon in DIO, mean ([1]; DIO mice, APC 20mg/kg, group mean, n=6): 102.8 ng/dL | plasma glucagon in DIO [1, 4]: 108 ng/dL and 94.83 ng/dL and 125.84 ng/dL and 81.38 ng/dL and 93.2 ng/dL and 113.74 ng/dL | plasma leptin in DIO [1, 4]: 64.99 ng/mL and 59.47 ng/mL and 49.46 ng/mL and 54.02 ng/mL and 54.7 ng/mL and 57.91 ng/mL | Plasma Insulin, mean ([1]; Figure 8e, APC 10mg/kg, group mean, n=5, VEH mean 5.378): 4.88 ng/mL | Plasma Insulin ([1]; Figure 8e, APC 10mg/kg, individual mice): 5.624 ng/mL and 3.217 ng/mL and 4.483 ng/mL and 6.089 ng/mL and 4.987 ng/mL | Plasma Insulin, mean ([1]; Figure 8e, APC 20mg/kg, group mean, n=5, VEH mean 5.378): 4.334 ng/mL | Plasma Insulin ([1]; Figure 8e, APC 20mg/kg, individual mice): 3.191 ng/mL and 4.624 ng/mL and 5.384 ng/mL and 4.549 ng/mL and 3.923 ng/mL | leptin levels ([1]; db/db mice): effectively reduced | plasma ghrelin ([1]; db/db mice): no significant effects | Plasma Insulin, mean ([1]; db/db mice, group mean, n=6): 12.2 ng/mL | plasma glucagon in db/db, mean ([1]; db/db mice, group mean, n=6): 266 ng/dL | Plasma Insulin ([1]; db/db mice, individual mouse): 9.327 ng/mL and 11.259 ng/mL and 11.886 ng/mL and 10.188 ng/mL and 13.359 ng/mL and 17.190 ng/mL | plasma glucagon in db/db ([1]; db/db mice, individual mouse): 251.14 ng/dL and 274.24 ng/dL and 342.64 ng/dL and 244.9 ng/dL and 187.78 ng/dL and 295.42 ng/dL | plasma Ghrelin in db/db ip APC ([1]; db/db mice, ip APC, single animals): 12.653 ng/mL and 14.269 ng/mL and 10.885 ng/mL and 7.483 ng/mL and 8.587 ng/mL | Plasma leptin, mean of column B (APC) ([1]; db/db mice, group mean (Figure 8l), n=5, VEH mean 1.196): 0.714 ng/mL | Plasma leptin ([1]; db/db mice, individual animals (Figure 8l), n=5): 0.7357 ng/mL and 0.6738 ng/mL and 0.8588 ng/mL and 0.5919 ng/mL and 0.7100 ng/mL | Cell activity % (HEK293T cells): 95.723% and 93.186% and 92.837% | CREB/CRTC2-mediated transcription of PER2 (mouse Per2 promoter): reduced
